Source: patent US20260200928A1, “THERAPEUTIC COMPOUNDS” (Sanofi, priority 2022, published 2026)

Target: T1, human IL-17A (Homo sapiens, UniProt Q16552)
T1 construct: purchased R&D Systems 7955-IL/CF
T1 sequence (Q16552 24-155): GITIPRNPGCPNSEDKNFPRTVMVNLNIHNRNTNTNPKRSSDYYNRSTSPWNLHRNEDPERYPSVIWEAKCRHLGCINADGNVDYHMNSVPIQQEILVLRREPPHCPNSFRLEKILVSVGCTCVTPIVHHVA
Experiment: IL-17A AlphaLISA competition assay (block of IL-17A binding to its receptor IL-17RA)
Details: mean IC50 (n≥2), block of IL-17A binding to IL-17RA
Method in brief: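 Human recombinant IL-17A (7.5 nM stock) pre-incubated 30 min at RT with compound, then IL-17RA/Fc (5 nM stock) added for 90 min; AlphaLISA read with anti-Fc acceptor beads, biotinylated anti-IL-17A antibody (5 nM) and streptavidin donor beads (3 h, dark). IC50 from 4-parameter logistic fit, normalised to DMSO and 4 μM reference inhibitor; n≥2.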

| SMILES | IC50 [µM] |
| --- | --- |
| [2H]C(c1ccnc(NC(=O)[C@@H](NC(=O)OC(C)(C)C)[C@H]2CC[C@H](C)CC2)c1)N1C[C@@H](C(F)(F)F)NC1=O (stereo partly drawn) [Example 151, Tert-butyl ((1S)-1-((1r,4S)-4-methylcyclohexyl)-2-oxo-2-((4-(((S)-2-oxo-4-(trifluoromethyl)-imidazolidin-1-yl)methyl-d)pyridin-2-yl)amino)ethyl)carbamate] | 0.401 |
| O=C(N[C@H](C(=O)Nc1cc(C[C@H]2C[C@@H](C(F)(F)F)NC2=O)ccn1)C1CCC(F)(F)CC1)c1nonc1C1CC1 [Example 222, 4-cyclopropyl-N-((S)-1-(4,4-difluorocyclohexyl)-2-oxo-2-((4-(((3S,5S)-2-oxo-5-(trifluoromethyl)pyrrolidin-3-yl)methyl)pyridin-2-yl)amino)ethyl)-1,2,5-oxadiazole-3-carboxamide] | 0.07 |
| CC(C)(C)OC(=O)N[C@H](C(=O)Nc1cc(C(NC(=O)CCC(F)(F)F)C2CC2)ccn1)C1CCC(F)(F)CC1 (single isomer, unassigned; diastereomer 1) [Example 72] | 0.547 |
| CC(C)(C)OCC(NC(=O)OCc1ccccc1)C(=O)Nc1cc(CN2C[C@@H](C(F)(F)F)NC2=O)ccn1 (mixture of isomers) [Example 81, Benzyl ((rac)-3-(tert-butoxy)-1-oxo-1-((4-(((S)-2-oxo-4-(trifluoromethyl)imidazolidin-1-yl)methyl)pyridin-2-yl)amino)propan-2-yl)carbamate] | 6.14 |
| CCn1nccc1C(=O)N[C@H](C(=O)Nc1cc(C[C@H]2C[C@@H](C(F)(F)F)NC2=O)ccn1)[C@H]1CC[C@H](C)CC1 [Example 155, 1-ethyl-N—((S)-1-((1r,4S)-4-methylcyclohexyl)-2-oxo-2-((4-(((3S,5S)-2-oxo-5-(trifluoromethyl)pyrrolidin-3-yl)methyl)pyridin-2-yl)amino)ethyl)-1H-pyrazole-5-carboxamide] | 0.029 |
| COCC(c1ccnc(NC(=O)[C@@H](NC(=O)c2nonc2C2CC2)C2CCC(F)(F)CC2)c1)[C@@H]1C[C@@H](C(F)(F)F)NC1=O (single isomer, unassigned) [Example 184, 4-Cyclopropyl-N—((S)-1-(4,4-difluorocyclohexyl)-2-((4-((R or S)-2-methoxy-1-((3S,5S)-2-oxo-5-(trifluoromethyl)pyrrolidin-3-yl)ethyl)pyridin-2-yl)amino)-2-oxoethyl)-1,2,5-oxadiazole-3-carboxamide] | 0.637 |
| COCC(NC(=O)CCC(F)(F)F)c1ccnc(NC(=O)[C@@H](NC(=O)c2ccnn2C2CC2)C2CCC(F)(F)CC2)c1 (single isomer, unassigned) [Example 139] | 0.265 |
| C[C@H]1CC[C@H]([C@@H](NC(=O)OCc2ccccc2)C(=O)Nc2cc(CN3C[C@H](C(F)(F)F)NC3=O)ccn2)CC1 [Example 5, Benzyl ((S)-1-((1r,4S)-4-methylcyclohexyl)-2-oxo-2-((4-(((S)-2-oxo-4-(trifluoromethyl)imidazolidin-1-yl)methyl)pyridin-2-yl)amino)ethyl)carbamate] | 0.179 |
| COCC(NC(=O)CCC(F)(F)F)c1ccnc(NC(=O)[C@@H](NC(=O)c2nonc2C2CC2)C2CCC(F)(F)CC2)c1 (single isomer, unassigned) [Example 133] | 0.073 |
| COC[C@H](c1ccnc(NC(=O)[C@H](COC(C)(C)C(F)(F)F)NC(=O)c2ccnn2C(C)C)c1)N1C[C@@H](C(F)(F)F)NC1=O [Example 272, 1-isopropyl-N-((S)-1-((4-((S)-2-methoxy-1-((S)-2-oxo-4-(trifluoromethyl)imidazolidin-1-yl)ethyl)pyridin-2-yl)amino)-1-oxo-3-((1,1,1-trifluoro-2-methylpropan-2-yl)oxy)propan-2-yl)-1H-pyrazole-5-carboxamide] | 0.048 |
| C[C@H]1CC[C@H]([C@H](NC(=O)c2nonc2C2CC2)C(=O)Nc2cc(CN3C[C@@H](C(F)(F)F)NC3=O)c(F)cn2)CC1 [Example 61, 4-cyclopropyl-N-((S)-2-((5-fluoro-4-(((S)-2-oxo-4-(trifluoromethyl)imidazolidin-1-yl)methyl)pyridin-2-yl)amino)-1-((1r,4S)-4-methylcyclohexyl)-2-oxo-ethyl)-1,2,5-oxadiazole-3-carboxamide] | 0.612 |
| Cn1nccc1C(=O)N[C@H](C(=O)Nc1cc(C(NC(=O)CCC(F)(F)F)C2CC2)ccn1)C(C1CC1)C1CC1 (single isomer, unassigned) [Example 38] | 0.448 |
| CCn1nccc1C(=O)N[C@@H](COC(C)(C)C(F)(F)F)C(=O)Nc1cc([C@@H](COC)N2C[C@@H](C(F)(F)F)NC2=O)ccn1 [Example 270, 1-ethyl-N-((S)-1-((4-((S)-2-methoxy-1-((S)-2-oxo-4-(trifluoromethyl)imidazolidin-1-yl)ethyl)pyridin-2-yl)amino)-1-oxo-3-((1,1,1-trifluoro-2-methylpropan-2-yl)oxy)propan-2-yl)-1H-pyrazole-5-carboxamide] | 0.029 |
| CC(C)n1ccnc1C(=O)N[C@H](C(=O)Nc1cc(C(NC(=O)CCC(F)(F)F)C2CC2)ccn1)C1CCC(F)(F)CC1 (stereo partly drawn) [Example 117, N-((1S)-2-((4-(cyclopropyl(4,4,4-trifluorobutanamido)methyl)pyridin-2-yl)amino)-1-(4,4-difluorocyclohexyl)-2-oxoethyl)-1-isopropyl-1H-imidazole-2-carboxamide] | 0.723 |
| Cn1nccc1C(=O)N[C@H](C(=O)Nc1cc(C(C2CC2)N2C[C@@H](C(F)(F)F)NC2=O)ccn1)C1CCC(F)(F)CC1 (single isomer, unassigned) [Example 166, N-((1S)-2-((4-((R or S)-cyclopropyl((S)-2-oxo-4-(trifluoromethyl)imidazolidin-1-yl)methyl)pyridin-2-yl)amino)-1-(4,4-difluorocyclohexyl)-2-oxoethyl)-1-methyl-1H-pyrazole-5-carboxamide] | 0.05 |

Second part, the molecule after the results:

| IC50 [µM] | SMILES |
| --- | --- |
| 0.044 | COC[C@H](c1ccnc(NC(=O)C(NC(=O)c2nonc2C2CC2)C2CCC(F)CC2)c1)N1C[C@@H](C(F)(F)F)NC1=O (single isomer, unassigned) [Example 277] |
| 0.104 | O=C(NC(C(=O)Nc1cc(CN2CC(C(F)(F)F)NC2=O)ccn1)C1CCC(F)CC1)c1nonc1C1CC1 [Example 292, 4-cyclopropyl-N-((S)-1-((1r,4S)-4-fluorocyclohexyl)-2-oxo-2-((4-(((S)-2-oxo-4-(trifluoromethyl)imidazolidin-1-yl)methyl)pyridin-2-yl)amino)ethyl)-1,2,5-oxadiazole-3-carboxamide] |
| 0.157 | COC[C@H](c1ccnc(NC(=O)[C@@H](NC(=O)Cc2cccc(C#N)c2)C2CCC(F)(F)CC2)c1)N1C[C@@H](C(F)(F)F)NC1=O [Example 206, (S)-2-(2-(3-cyanophenyl)acetamido)-2-(4,4-difluorocyclohexyl)-N-(4-((S)-2-methoxy-1-((S)-2-oxo-4-(trifluoromethyl)imidazolidin-1-yl)ethyl)pyridin-2-yl)acetamide] |
| 0.061 | COCC(c1ccnc(NC(=O)[C@@H](NC(=O)C(F)(F)c2ccccc2)[C@H]2CC[C@H](C)CC2)c1)N1C[C@@H](C(F)(F)F)NC1=O (single isomer, unassigned) [Example 150] |
| 0.082 | COCC(c1ccnc(NC(=O)[C@@H](NC(=O)Cc2cc(C)[nH]n2)[C@H]2CC[C@H](C)CC2)c1)N1C[C@@H](C(F)(F)F)NC1=O (single isomer, unassigned) [Example 114] |
| 0.072 | CCn1nccc1C(=O)NC(C(=O)Nc1cc([C@@H](COC)N2C[C@@H](C(F)(F)F)NC2=O)ccn1)C1CCC(C)(F)CC1 (single isomer, unassigned) [Example 299] |
| 0.816 | [2H]C([2H])([2H])C([2H])([2H])n1ccc(C(=O)N[C@H](C(=O)Nc2cc([C@@H](COC)N3C[C@@H](C(F)(F)F)NC3=O)ccn2)C2CCC(F)(F)CC2)n1 [Example 190, N-((S)-1-(4,4-difluorocyclohexyl)-2-((4-((S)-2-methoxy-1-((S)-2-oxo-4-(trifluoromethyl)imidazolidin-1-yl)ethyl)pyridin-2-yl)amino)-2-oxoethyl)-1-(ethyl-d5)-1H-pyrazole-3-carboxamide] |
| 0.009 | CCC(c1ccnc(NC(=O)C(NC(=O)c2ccnn2CC)C2CCC(C)CC2)c1)N1CC(C(F)(F)F)NC1=O [Example 258, 1-ethyl-N-((S)-1-((1r,4S)-4-methylcyclohexyl)-2-oxo-2-((4-((R)-1-((S)-2-oxo-4-(trifluoromethyl)imidazolidin-1-yl)propyl)pyridin-2-yl)amino)ethyl)-1H-pyrazole-5-carboxamide] |
| 0.03 | CCc1conc1C(=O)NC(C(=O)Nc1cc([C@@H](C(C)C)N2C[C@@H](C(F)(F)F)NC2=O)ccn1)C1CCC(F)(F)CC1 (stereo in doubt) [Example 159, N—((S)-1-(4,4-difluorocyclohexyl)-2-((4-((R)-2-methyl-1-((S)-2-oxo-4-(trifluoromethyl)imidazolidin-1-yl)propyl)pyridin-2-yl)amino)-2-oxoethyl)-4-ethylisoxazole-3-carboxamide] |
| 0.097 | COC[C@H](c1ccnc(NC(=O)C(NC(=O)c2conc2C)C2CCC(F)CC2)c1)N1C[C@@H](C(F)(F)F)NC1=O (single isomer, unassigned) [Example 283] |
| 0.031 | COC[C@H](c1ccnc(NC(=O)[C@@H](NC(=O)c2nocc2C(C)C)C2CCC(F)(F)CC2)c1)N1C[C@@H](C(F)(F)F)NC1=O [Example 188, N-((S)-1-(4,4-difluorocyclohexyl)-2-((4-((S)-2-methoxy-1-((S)-2-oxo-4-(trifluoromethyl)imidazolidin-1-yl)ethyl)pyridin-2-yl)amino)-2-oxoethyl)-4-isopropylisoxazole-3-carboxamide] |
